The test system of data set [1] is Mus musculus. Briefly: Toxicity in Mus musculus albino (mouse) assessed as effect on gross behavior activity at 75 umol/kg, ip. The following applies: in vivo. The class given is organism-based.
The test system of data set [2] is Mus musculus. As to the kind of experiment: Anorexigenic activity in Mus musculus albino (mouse) assessed as anorexia at 75 umol/kg, ip relative to fluoxetine. It counts as functional.
The test system of data set [3] is Mus musculus. Briefly: Anorexigenic activity in Mus musculus albino (mouse) assessed as anorexia at 75 umol/kg, ip. The class given is functional.
The test system of data set [4] is Mus musculus. Briefly: Antidepressant activity in Mus musculus albino (mouse) assessed as reversal of reserpine-induced ptosis, sedation and crouching at 75 umol/kg, ip. The class given is functional.

SMILES strings stand for the structures. Calls of active or inactive are those of the source. The calls are words filed in the database; no cut-off is given here.

Results on 17 compounds are retold here after ChEMBL document CHEMBL3045782, “SYNTHESIS OF THE RIGID ANALOGUES OF AN SSRI BENZENEPROPANAMINE” (Med Chem Res, 2004).

For `CN1CCC(O)(c2ccccc2)CC1`, the values for the Activity result in the data set on Mus musculus [1], in the data set with Mus musculus [2] and in the data set with Mus musculus [3] were “Non-toxic”, 56.86% and 46.4%, respectively. The result in the data set on Mus musculus [4] was inactive.

For the compound `COC(=O)c1ccc(OCC(O)CN2CCC(Oc3ccc(C(F)(F)F)cc3)CC2)cc1` (stereo unspecified), the Activity entry in the data set on Mus musculus [1] is given as “Non-toxic”; in the data set with Mus musculus [2], 32.84%; with Mus musculus [3] it was 26.8%. In addition, the outcome with Mus musculus [4] was inactive.

As to `COc1cccc(OCC(O)CN2CCC(Oc3ccc(C(F)(F)F)cc3)CC2)c1` (stereo unspecified), the Activity result was “Non-toxic” in the data set with Mus musculus [1], 63.23% in the data set on Mus musculus [2], 51.6% in the data set on Mus musculus [3] and 50% in the data set with Mus musculus [4].

On to `COc1ccc(OCC(O)CN2CCC(Oc3ccc(C(F)(F)F)cc3)CC2)cc1` (stereo unspecified), for which the Activity result in the data set on Mus musculus [1] was “Non-toxic”; in the data set with Mus musculus [2] it was 47.05%; in the data set on Mus musculus [3] it was 38.4%. In the data set on Mus musculus [4], the result was inactive.

For `FC(F)(F)c1ccc(OC2CCNCC2)cc1`, the Activity entry with Mus musculus [1] was “Non-toxic”; with Mus musculus [2], 81.86%; with Mus musculus [3], 66.8%; with Mus musculus [4], 75%.

As to `OC(COc1ccccc1)CN1CCC(Oc2ccc(C(F)(F)F)cc2)CC1` (stereo unspecified), the Activity result with Mus musculus [1] is “Non-toxic”; in the data set with Mus musculus [2], 82.84%; in the data set with Mus musculus [3], 67.6%. Besides, the result with Mus musculus [4] was inactive.

Consider `CC(=O)Nc1ccc(OCC(O)CN2CCC(Oc3ccc(C(F)(F)F)cc3)CC2)cc1` (stereo unspecified), for which the Activity entry in the data set on Mus musculus [1] is listed as “Non-toxic”; in the data set with Mus musculus [2], 61.67%; in the data set on Mus musculus [3] it was 50.4%. Moreover, the result with Mus musculus [4] was inactive.

Turning to `OC(COc1ccc(Br)cc1)CN1CCC(Oc2ccc(C(F)(F)F)cc2)CC1` (stereo unspecified), the Activity result is “Non-toxic” in the data set on Mus musculus [1], 95.09% with Mus musculus [2] and 77.6% in the data set with Mus musculus [3]. In addition, in the data set with Mus musculus [4], the outcome was inactive.

On to `CCC(=O)c1ccc(OCC(O)CN2CCC(Oc3ccc(C(F)(F)F)cc3)CC2)cc1` (stereo unspecified), for which the Activity result is “Non-toxic” in the data set on Mus musculus [1], 67.64% in the data set on Mus musculus [2] and 55.2% in the data set on Mus musculus [3]. Besides, the outcome in the data set on Mus musculus [4] was inactive.

Regarding `CNCCC(Oc1ccc(C(F)(F)F)cc1)c1ccccc1` (stereo unspecified) [FLUOXETINE], the Activity in the data set with Mus musculus [3] was 81.6%; with Mus musculus [4] it was 100%.

`CC(=O)c1ccc(OCC(O)CN2CCC(Oc3ccc(C(F)(F)F)cc3)CC2)cc1` (stereo unspecified): the results for the Activity entry in the data set on Mus musculus [1], in the data set on Mus musculus [2] and in the data set on Mus musculus [3] were “Non-toxic”, 96.07% and 78.4%, respectively. Further, the outcome in the data set with Mus musculus [4] was inactive.

For `OC(COc1cccc(C(F)(F)F)c1)CN1CCC(Oc2ccc(C(F)(F)F)cc2)CC1` (stereo unspecified), the Activity result in the data set on Mus musculus [1] was “Non-toxic”; in the data set with Mus musculus [2], 38.23%; in the data set with Mus musculus [3], 31.2%. The result in the data set with Mus musculus [4] was inactive.

In the case of `COC(=O)c1ccccc1OCC(O)CN1CCC(Oc2ccc(C(F)(F)F)cc2)CC1` (stereo unspecified), the Activity result in the data set on Mus musculus [1] was “Non-toxic”; with Mus musculus [2], 43.13%; in the data set on Mus musculus [3] it was 35.2%. In addition, in the data set with Mus musculus [4], the result was inactive.

Take `OC(COc1ccc(Cl)cc1)CN1CCC(Oc2ccc(C(F)(F)F)cc2)CC1` (stereo unspecified): the Activity entry is recorded as “Non-toxic” in the data set with Mus musculus [1], 75.49% with Mus musculus [2], 61.6% in the data set with Mus musculus [3] and 75% with Mus musculus [4].

For `N#Cc1ccc(OCC(O)CN2CCC(Oc3ccc(C(F)(F)F)cc3)CC2)cc1` (stereo unspecified), the Activity result with Mus musculus [1] was “Non-toxic”; with Mus musculus [2], 70.58%; in the data set with Mus musculus [3] it was 57.6%. For the same compound, the outcome with Mus musculus [4] was inactive.

For the compound `CN1CCC(Oc2ccc(C(F)(F)F)cc2)CC1`, the Activity result in the data set on Mus musculus [1] is given as “Non-toxic”; in the data set on Mus musculus [2] it was 28.92%; in the data set on Mus musculus [3], 23.6%. Besides, the outcome in the data set with Mus musculus [4] was inactive.

Take `OC(COc1ccc(C(F)(F)F)cc1)CN1CCC(Oc2ccc(C(F)(F)F)cc2)CC1` (stereo unspecified): the Activity entry in the data set with Mus musculus [1] is on record as “Non-toxic”; with Mus musculus [2], 77.94%; in the data set on Mus musculus [3], 63.6%. Besides, the result with Mus musculus [4] was inactive.
